Source: patent publication US11357779B2 (G1 Therapeutics, Inc., priority 2018, dated 2022)
Where two headings read alike, the source gives them in different places.

Experiment: Noncompartmental pharmacokinetic parameters (Cmax, Tmax, AUC, Racc) in QD and BID cohorts of Form B
Format: in vivo, human
Settings: human, plasma, oral
Procedure: Analysis of plasma concentration versus time data for calculation of standard pharmacokinetic (PK) parameters following oral administration was conducted using Phoenix WinNonlin version 6.3 using actual blood sampling times.
The following pharmacokinetic parameters were calculated from the concentration versus time data obtained in Example 1 for each of the above QD (200 mg, 300 mg, 400 mg, 500 mg, or 650 mg dosed) and BID (100 mg, 150 mg, or 200 mg doses) Form B of Compound II dosage cohorts: • Cmax—the observed peak plasma concentration determined from the plasma concentration versus time data obtained on Day 1 and Day 29, as applicable; • Tmax—the time to reach the observed peak plasma concentration from the plasma concentration versus time data obtained on Day 1 and Day 29, as applicable; • AUC—area under the plasma concentration versus time curve during a dosing interval on Day 1 and Day 29, as applicable; and • Racc—accumulation ratio calculated as AUCDay 29/AUCDay 1.

`CC(C)N1CCN(c2ccc(Nc3ncc4cc5n(c4n3)C3(CCCCC3)CNC5=O)nc2)CC1` [Compound I, 2′-((5-(4-isopropylpiperazin-1-yl)pyridin-2-yl)amino)-7′,8′-dihydro-6′H-spiro[cyclohexane-1,9′-pyrazino[1′,2′:1,5]pyrrolo[2,3-d]pyrimidin]-6′-one] gave a Cmax (300 mg, Cohort 2, 300 mg QD of Form B, Day 1, upon exclusion of data for patient that vomited immediately after dosing, read-out: Cmax, Mean) of 0.0552 µg/mL, an AUC(0-t) (300 mg, Cohort 2, 300 mg QD of Form B, Day 1, read-out: AUClast, Mean) of 0.413 µg·h/mL and an AUC(0-t) (300 mg, Cohort 2, 300 mg QD of Form B, Day 1, read-out: AUClast, Median) of 0.554 µg·h/mL. For the same compound, the Cmax (300 mg, Cohort 2, 300 mg QD of Form B, Day 1, read-out: Cmax, Mean) was 0.0402 µg/mL, the Cmax (300 mg, Cohort 2, 300 mg QD of Form B, Day 1, read-out: Cmax, Median) was 0.0443 µg/mL and the Tmax (300 mg, Cohort 2, 300 mg QD of Form B, Day 1, read-out: Tmax, Mean) was 4.67 h. It also gave a Tmax (300 mg, Cohort 2, 300 mg QD of Form B, Day 1, read-out: Tmax, Median) of 4 h, an AUC(0-t) (300 mg, Compound I, 300 mg QD of Form B, Cohort 2, Day 29, read-out: AUClast (Mean)) of 0.592 µg·h/mL and an AUC(0-t) (300 mg, Compound I, 300 mg QD of Form B, Cohort 2, Day 29, read-out: AUClast (Median)) of 0.604 µg·h/mL. For the same compound, the Cmax (300 mg, Compound I, 300 mg QD of Form B, Cohort 2, Day 29, read-out: Cmax (Mean)) was 0.047 µg/mL, the Cmax (300 mg, Compound I, 300 mg QD of Form B, Cohort 2, Day 29, read-out: Cmax (Median)) was 0.0405 µg/mL and the Tmax (300 mg, Compound I, 300 mg QD of Form B, Cohort 2, Day 29, read-out: Tmax (Mean)) was 6 h. For the same compound, the Tmax (300 mg, Compound I, 300 mg QD of Form B, Cohort 2, Day 29, read-out: Tmax (Median)) was 4 h, the AUC(0-t) (400 mg, Cohort 3, 400 mg QD of Form B, Day 1, read-out: AUClast, Mean) was 0.202 µg·h/mL and the AUC(0-t) (400 mg, Cohort 3, 400 mg QD of Form B, Day 1, read-out: AUClast, Median) was 0.183 µg·h/mL. The Cmax (400 mg, Cohort 3, 400 mg QD of Form B, Day 1, read-out: Cmax, Mean) was 0.0201 µg/mL, the Cmax (400 mg, Cohort 3, 400 mg QD of Form B, Day 1, read-out: Cmax, Median) was 0.0216 µg/mL and the Tmax (400 mg, Cohort 3, 400 mg QD of Form B, Day 1, read-out: Tmax, Mean) was 6 h. The Tmax (400 mg, Cohort 3, 400 mg QD of Form B, Day 1, read-out: Tmax, Median) was 6 h, the AUC(0-t) (400 mg, Compound I, 400 mg QD of Form B, Cohort 3, Day 29, read-out: AUClast (Mean)) was 0.278 µg·h/mL and the AUC(0-t) (400 mg, Compound I, 400 mg QD of Form B, Cohort 3, Day 29, read-out: AUClast (Median)) was 0.348 µg·h/mL. It also gave a Cmax (400 mg, Compound I, 400 mg QD of Form B, Cohort 3, Day 29, read-out: Cmax (Mean)) of 0.019 µg/mL, a Cmax (400 mg, Compound I, 400 mg QD of Form B, Cohort 3, Day 29, read-out: Cmax (Median)) of 0.0235 µg/mL and a Tmax (400 mg, Compound I, 400 mg QD of Form B, Cohort 3, Day 29, read-out: Tmax (Mean)) of 5.33 h. It also gave a Tmax (400 mg, Compound I, 400 mg QD of Form B, Cohort 3, Day 29, read-out: Tmax (Median)) of 6 h, an AUC(0-t) (500 mg, Cohort 4, 500 mg QD of Form B, Day 1, read-out: AUClast, Mean) of 0.577 µg·h/mL and an AUC(0-t) (500 mg, Cohort 4, 500 mg QD of Form B, Day 1, read-out: AUClast, Median) of 0.611 µg·h/mL. For the same compound, the Cmax (500 mg, Cohort 4, 500 mg QD of Form B, Day 1, read-out: Cmax, Mean) was 0.0489 µg/mL, the Cmax (500 mg, Cohort 4, 500 mg QD of Form B, Day 1, read-out: Cmax, Median) was 0.0496 µg/mL and the Tmax (500 mg, Cohort 4, 500 mg QD of Form B, Day 1, read-out: Tmax, Mean) was 5.75 h. It also gave a Tmax (500 mg, Cohort 4, 500 mg QD of Form B, Day 1, read-out: Tmax, Median) of 6 h, an AUC(0-t) (500 mg, Compound I, 500 mg QD of Form B, Cohort 4, Day 29, read-out: AUClast (Mean)) of 0.607 µg·h/mL and an AUC(0-t) (500 mg, Compound I, 500 mg QD of Form B, Cohort 4, Day 29, read-out: AUClast (Median)) of 0.591 µg·h/mL. It also gave a Cmax (500 mg, Compound I, 500 mg QD of Form B, Cohort 4, Day 29, read-out: Cmax (Mean)) of 0.0432 µg/mL, a Cmax (500 mg, Compound I, 500 mg QD of Form B, Cohort 4, Day 29, read-out: Cmax (Median)) of 0.045 µg/mL and a Tmax (500 mg, Compound I, 500 mg QD of Form B, Cohort 4, Day 29, read-out: Tmax (Mean)) of 5.33 h. For the same compound, the Tmax (500 mg, Compound I, 500 mg QD of Form B, Cohort 4, Day 29, read-out: Tmax (Median)) was 6 h, the AUC(0-t) (650 mg, Cohort 5, 650 mg QD of Form B, Day 1, read-out: AUClast, Mean) was 0.799 µg·h/mL and the AUC(0-t) (650 mg, Cohort 5, 650 mg QD of Form B, Day 1, read-out: AUClast, Median) was 0.805 µg·h/mL. It also gave a Cmax (650 mg, Cohort 5, 650 mg QD of Form B, Day 1, read-out: Cmax, Mean) of 0.0625 µg/mL, a Cmax (650 mg, Cohort 5, 650 mg QD of Form B, Day 1, read-out: Cmax, Median) of 0.067 µg/mL and a Tmax (650 mg, Cohort 5, 650 mg QD of Form B, Day 1, read-out: Tmax, Mean) of 7.67 h. The Tmax (650 mg, Cohort 5, 650 mg QD of Form B, Day 1, read-out: Tmax, Median) was 8 h, the AUC(0-t) (650 mg, Compound I, 650 mg QD of Form B, Cohort 5, Day 29, read-out: AUClast (Mean)) was 0.607 µg·h/mL and the AUC(0-t) (650 mg, Compound I, 650 mg QD of Form B, Cohort 5, Day 29, read-out: AUClast (Median)) was 0.591 µg·h/mL. It also gave a Cmax (650 mg, Compound I, 650 mg QD of Form B, Cohort 5, Day 29, read-out: Cmax (Mean)) of 0.0432 µg/mL, a Cmax (650 mg, Compound I, 650 mg QD of Form B, Cohort 5, Day 29, read-out: Cmax (Median)) of 0.045 µg/mL and a Tmax (650 mg, Compound I, 650 mg QD of Form B, Cohort 5, Day 29, read-out: Tmax (Mean)) of 5.33 h. The Tmax (650 mg, Compound I, 650 mg QD of Form B, Cohort 5, Day 29, read-out: Tmax (Median)) was 6 h.
